According to ChEMBL document CHEMBL4387741, “Optimization of novel reversible Bruton's tyrosine kinase inhibitors identified using Tethering-fragment-based screens” (Bioorg Med Chem, 2019):

Tests used:
[1] = molecular target: RAC-alpha serine/threonine-protein kinase (Homo sapiens) (UniProt P31749); assay: Inhibition of wild-type human partial length AKT1 expressed in bacterial expression system at 1 uM by Kinomescan method relative to control
[2] = molecular target: Dual specificity tyrosine-phosphorylation-regulated kinase 1A (Homo sapiens) (UniProt Q13627); assay: Inhibition of wild-type human partial length DYRK1A (H129 to S509 residues) expressed in mammalian expression system at 1 uM by Kinomescan method relative to control
[3] = molecular target: Dual specificity tyrosine-phosphorylation-regulated kinase 2 (Homo sapiens) (UniProt Q92630); assay: Inhibition of wild-type human full length DYRK2 (M1 to S528 residues) expressed in mammalian expression system at 1 uM by Kinomescan method relative to control
[4] = molecular target: Ephrin type-B receptor 4 (Homo sapiens) (UniProt P54760); assay: Inhibition of wild-type human partial length EPHB4 (H585 to G892 residues) expressed in bacterial expression system at 1 uM by Kinomescan method relative to control
Sequence of Ephrin type-B receptor 4 (Homo sapiens) (P54760 whole entry, the tested form may be a part): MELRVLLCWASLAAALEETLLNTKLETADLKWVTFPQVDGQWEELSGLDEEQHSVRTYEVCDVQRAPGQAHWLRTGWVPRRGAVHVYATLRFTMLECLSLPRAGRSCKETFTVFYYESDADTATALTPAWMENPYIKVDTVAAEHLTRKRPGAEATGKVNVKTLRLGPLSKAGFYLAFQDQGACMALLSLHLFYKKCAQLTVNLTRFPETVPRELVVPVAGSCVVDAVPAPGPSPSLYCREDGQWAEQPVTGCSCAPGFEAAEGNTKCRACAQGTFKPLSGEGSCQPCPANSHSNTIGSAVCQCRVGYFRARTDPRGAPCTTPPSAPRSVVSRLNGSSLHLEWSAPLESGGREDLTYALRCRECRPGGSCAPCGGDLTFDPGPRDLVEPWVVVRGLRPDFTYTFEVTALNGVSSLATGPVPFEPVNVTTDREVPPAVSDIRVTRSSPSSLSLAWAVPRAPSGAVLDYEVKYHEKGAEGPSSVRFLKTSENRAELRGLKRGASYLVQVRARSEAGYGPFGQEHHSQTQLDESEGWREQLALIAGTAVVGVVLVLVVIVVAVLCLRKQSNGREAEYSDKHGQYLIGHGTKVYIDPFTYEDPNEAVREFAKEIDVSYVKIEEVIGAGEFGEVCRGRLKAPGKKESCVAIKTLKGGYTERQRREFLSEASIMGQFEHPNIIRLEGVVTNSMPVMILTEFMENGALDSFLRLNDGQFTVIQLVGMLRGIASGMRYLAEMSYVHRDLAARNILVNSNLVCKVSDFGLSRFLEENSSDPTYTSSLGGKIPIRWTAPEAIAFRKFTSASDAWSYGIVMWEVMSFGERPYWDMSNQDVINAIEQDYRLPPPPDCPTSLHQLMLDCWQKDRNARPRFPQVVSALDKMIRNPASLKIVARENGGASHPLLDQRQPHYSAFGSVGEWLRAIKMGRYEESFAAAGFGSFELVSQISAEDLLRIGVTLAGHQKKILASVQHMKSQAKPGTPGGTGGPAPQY

[5] = molecular target: Cyclin-dependent kinase 16 (Homo sapiens) (UniProt Q00536); assay: Inhibition of wild-type human partial length PCTK1 (G160 to A474 residues) expressed in mammalian expression system at 1 uM by Kinomescan method relative to control
[6] = molecular target: Phosphatidylinositol 4-kinase beta (Homo sapiens) (UniProt Q9UBF8); assay: Inhibition of wild-type human full length PIK4CB (M1 to M828 residues) expressed in mammalian expression system at 1 uM by Kinomescan method relative to control
[7] = molecular target: Proto-oncogene tyrosine-protein kinase ROS (Homo sapiens) (UniProt P08922); assay: Inhibition of wild-type human partial length ROS1 (A1921 to N2240 residues) expressed in bacterial expression system at 1 uM by Kinomescan method relative to control
[8] = molecular target: Casein kinase I isoform alpha-like (Homo sapiens) (UniProt Q8N752); assay: Inhibition of wild-type human full length CSNK1A1L (M1 to N337 residues) expressed in bacterial expression system at 10 uM by Kinomescan method relative to control
Sequence of Casein kinase I isoform alpha-like (Homo sapiens) (Q8N752 whole entry, the tested form may be a part, canonical isoform): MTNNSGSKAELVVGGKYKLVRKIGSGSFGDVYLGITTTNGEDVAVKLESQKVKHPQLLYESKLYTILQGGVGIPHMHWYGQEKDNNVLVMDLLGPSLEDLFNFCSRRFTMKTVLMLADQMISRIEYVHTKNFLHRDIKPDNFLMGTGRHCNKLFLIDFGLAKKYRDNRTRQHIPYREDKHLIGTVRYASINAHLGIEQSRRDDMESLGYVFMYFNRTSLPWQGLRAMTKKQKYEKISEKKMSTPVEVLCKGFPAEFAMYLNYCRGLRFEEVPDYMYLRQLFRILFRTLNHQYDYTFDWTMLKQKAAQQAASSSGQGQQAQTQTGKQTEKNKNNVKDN

[9] = molecular target: Death-associated protein kinase 1 (Homo sapiens) (UniProt P53355); assay: Inhibition of wild-type human partial length DAPK1 (M1 to F296 residues) expressed in bacterial expression system at 10 uM by Kinomescan method relative to control
[10] = molecular target: Ephrin type-B receptor 2 (Homo sapiens) (UniProt P29323); assay: Inhibition of wild-type human partial length EPHB2 (I597 to L902 residues) expressed in bacterial expression system at 10 uM by Kinomescan method relative to control
[11] = molecular target: Ephrin type-B receptor 3 (Homo sapiens) (UniProt P54753); assay: Inhibition of wild-type human partial length EPHB3 (Q599 to T928 residues) expressed in bacterial expression system at 10 uM by Kinomescan method relative to control
[12] = molecular target: Vascular endothelial growth factor receptor 3 (Homo sapiens) (UniProt P35916); assay: Inhibition of wild-type human partial length FLT4 (E821 to E1196 residues) expressed in bacterial expression system at 10 uM by Kinomescan method relative to control
[13] = molecular target: Glycogen synthase kinase-3 alpha (Homo sapiens) (UniProt P49840); assay: Inhibition of wild-type human full length GSK3A (M1 to S483 residues) expressed in bacterial expression system at 10 uM by Kinomescan method relative to control
Sequence of Glycogen synthase kinase-3 alpha (Homo sapiens) (P49840 2-483 limits assumed): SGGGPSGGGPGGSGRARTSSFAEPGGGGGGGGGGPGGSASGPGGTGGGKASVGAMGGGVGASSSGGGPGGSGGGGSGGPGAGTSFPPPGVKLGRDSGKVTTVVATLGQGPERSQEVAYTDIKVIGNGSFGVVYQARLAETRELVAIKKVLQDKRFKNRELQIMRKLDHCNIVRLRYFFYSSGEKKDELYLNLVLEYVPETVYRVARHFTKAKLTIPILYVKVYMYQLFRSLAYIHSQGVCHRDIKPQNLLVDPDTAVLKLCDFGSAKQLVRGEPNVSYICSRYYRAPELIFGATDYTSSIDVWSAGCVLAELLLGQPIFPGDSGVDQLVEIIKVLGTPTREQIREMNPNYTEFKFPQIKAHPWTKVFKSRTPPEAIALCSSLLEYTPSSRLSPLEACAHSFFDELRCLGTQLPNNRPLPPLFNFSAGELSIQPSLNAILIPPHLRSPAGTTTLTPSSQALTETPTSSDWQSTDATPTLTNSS

[14] = molecular target: Tyrosine-protein kinase HCK (Homo sapiens) (UniProt P08631); assay: Inhibition of wild-type human full length HCK (M22 to P526 residues) expressed in bacterial expression system at 10 uM by Kinomescan method relative to control
[15] = molecular target: Mast/stem cell growth factor receptor Kit (Homo sapiens) (UniProt P10721); assay: Inhibition of wild-type human partial length KIT (I571 to D952 residues) expressed in bacterial expression system at 10 uM by Kinomescan method relative to control
[16] = molecular target: Mitogen-activated protein kinase kinase kinase 2 (Homo sapiens) (UniProt Q9Y2U5); assay: Inhibition of wild-type human partial length MAP3K2 (S315 to H619 residues) expressed in mammalian expression system at 10 uM by Kinomescan method relative to control
[17] = molecular target: Dual specificity mitogen-activated protein kinase kinase 6 (Homo sapiens) (UniProt P52564); assay: Inhibition of wild-type human partial length MEK6 (K36 to D334 residues) expressed in bacterial expression system at 10 uM by Kinomescan method relative to control
[18] = molecular target: Hepatocyte growth factor receptor (Homo sapiens) (UniProt P08581); assay: Inhibition of wild-type human partial length MET (D1010 to S1367 residues) expressed in bacterial expression system at 10 uM by Kinomescan method relative to control
[19] = molecular target: Membrane-associated tyrosine- and threonine-specific cdc2-inhibitory kinase (Homo sapiens) (UniProt Q99640); assay: Inhibition of wild-type human partial length PKMYT1 (A88 to G366 residues) expressed in bacterial expression system at 10 uM by Kinomescan method relative to control
Sequence of Membrane-associated tyrosine- and threonine-specific cdc2-inhibitory kinase (Homo sapiens) (Q99640 whole entry, the tested form may be a part): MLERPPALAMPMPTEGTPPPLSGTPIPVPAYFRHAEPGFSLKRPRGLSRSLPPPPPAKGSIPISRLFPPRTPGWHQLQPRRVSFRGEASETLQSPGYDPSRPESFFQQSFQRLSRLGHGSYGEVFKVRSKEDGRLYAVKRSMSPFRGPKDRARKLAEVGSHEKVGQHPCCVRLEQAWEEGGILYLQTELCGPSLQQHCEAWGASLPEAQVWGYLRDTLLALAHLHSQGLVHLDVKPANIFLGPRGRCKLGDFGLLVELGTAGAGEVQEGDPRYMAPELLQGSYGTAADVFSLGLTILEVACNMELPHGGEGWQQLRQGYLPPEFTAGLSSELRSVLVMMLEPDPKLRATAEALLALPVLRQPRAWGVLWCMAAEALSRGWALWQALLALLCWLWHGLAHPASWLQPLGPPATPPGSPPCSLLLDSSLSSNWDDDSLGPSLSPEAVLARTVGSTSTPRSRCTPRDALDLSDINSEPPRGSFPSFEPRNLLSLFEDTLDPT

[20] = molecular target: cGMP-dependent protein kinase 2 (Homo sapiens) (UniProt Q13237); assay: Inhibition of wild-type human partial length PRKG2 (S422 to F762 residues) expressed in mammalian expression system at 10 uM by Kinomescan method relative to control
Sequence of cGMP-dependent protein kinase 2 (Homo sapiens) (Q13237 whole entry, the tested form may be a part): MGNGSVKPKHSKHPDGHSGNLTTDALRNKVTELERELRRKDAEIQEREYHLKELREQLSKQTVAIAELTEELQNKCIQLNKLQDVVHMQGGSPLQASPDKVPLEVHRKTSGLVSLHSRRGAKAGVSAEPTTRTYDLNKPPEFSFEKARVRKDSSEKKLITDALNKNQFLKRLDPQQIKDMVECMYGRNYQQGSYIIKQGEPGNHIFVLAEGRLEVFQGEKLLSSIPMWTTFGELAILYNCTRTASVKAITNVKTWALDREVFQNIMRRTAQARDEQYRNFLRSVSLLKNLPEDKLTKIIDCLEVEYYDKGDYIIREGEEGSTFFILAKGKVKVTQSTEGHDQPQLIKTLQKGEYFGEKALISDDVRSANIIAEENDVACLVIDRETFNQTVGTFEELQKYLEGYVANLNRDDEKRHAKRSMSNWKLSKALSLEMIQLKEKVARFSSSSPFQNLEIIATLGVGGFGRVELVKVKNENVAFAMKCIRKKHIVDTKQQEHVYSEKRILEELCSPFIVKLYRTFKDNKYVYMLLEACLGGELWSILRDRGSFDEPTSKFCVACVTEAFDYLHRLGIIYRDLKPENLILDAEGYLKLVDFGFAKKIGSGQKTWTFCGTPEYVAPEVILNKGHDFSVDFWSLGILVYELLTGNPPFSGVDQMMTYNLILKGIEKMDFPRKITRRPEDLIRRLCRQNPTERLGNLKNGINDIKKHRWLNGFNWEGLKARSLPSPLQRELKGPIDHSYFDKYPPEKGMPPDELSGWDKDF

[21] = molecular target: Protein-tyrosine kinase 2-beta (Homo sapiens) (UniProt Q14289); assay: Inhibition of wild-type human full length PYK2 (M1 to E967 residues) expressed in bacterial expression system at 10 uM by Kinomescan method relative to control
[22] = molecular target: RAF proto-oncogene serine/threonine-protein kinase (Homo sapiens) (UniProt P04049); assay: Inhibition of wild-type human partial length RAF1 (I330 to T640 residues) expressed in bacterial expression system at 10 uM by Kinomescan method relative to control
Sequence of RAF proto-oncogene serine/threonine-protein kinase (Homo sapiens) (P04049 whole entry, the tested form may be a part): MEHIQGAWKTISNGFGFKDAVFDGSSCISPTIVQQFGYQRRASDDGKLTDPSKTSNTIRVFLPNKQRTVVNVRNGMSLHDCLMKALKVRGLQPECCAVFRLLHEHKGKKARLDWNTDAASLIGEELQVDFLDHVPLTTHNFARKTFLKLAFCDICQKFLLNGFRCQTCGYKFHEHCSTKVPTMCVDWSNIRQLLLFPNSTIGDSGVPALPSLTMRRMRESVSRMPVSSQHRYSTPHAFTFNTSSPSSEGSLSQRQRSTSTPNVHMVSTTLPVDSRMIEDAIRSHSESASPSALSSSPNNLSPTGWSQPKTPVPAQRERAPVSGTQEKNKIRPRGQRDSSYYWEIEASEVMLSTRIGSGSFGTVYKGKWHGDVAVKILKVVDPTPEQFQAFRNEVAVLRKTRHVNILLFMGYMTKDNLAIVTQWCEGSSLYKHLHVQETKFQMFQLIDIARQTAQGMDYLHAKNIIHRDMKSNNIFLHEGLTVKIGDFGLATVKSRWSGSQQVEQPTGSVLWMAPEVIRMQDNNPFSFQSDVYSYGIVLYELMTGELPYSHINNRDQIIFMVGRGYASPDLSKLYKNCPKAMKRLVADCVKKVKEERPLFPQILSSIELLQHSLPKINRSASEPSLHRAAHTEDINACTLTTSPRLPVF

[23] = molecular target: Dual serine/threonine and tyrosine protein kinase (Homo sapiens) (UniProt Q6XUX3); assay: Inhibition of wild-type human full length RIPK5 (M1 to T929 residues) expressed in mammalian expression system at 10 uM by Kinomescan method relative to control
[24] = molecular target: Serine/threonine-protein kinase 36 (Homo sapiens) (UniProt Q9NRP7); assay: Inhibition of wild-type human partial length STK36 (M1 to T271 residues) expressed in bacterial expression system at 10 uM by Kinomescan method relative to control
[25] = molecular target: Activated CDC42 kinase 1 (Homo sapiens) (UniProt Q07912); assay: Inhibition of wild-type human partial length TNK2 (S159 to D474 residues) expressed in bacterial expression system at 10 uM by Kinomescan method relative to control
[26] = molecular target: Vascular endothelial growth factor receptor 2 (Homo sapiens) (UniProt P35968); assay: Inhibition of wild-type human partial length VEGFR2 (R787 to P1253 residues) expressed in mammalian expression system at 10 uM by Kinomescan method relative to control
[27] = molecular target: Serine/threonine-protein kinase VRK2 (Homo sapiens) (UniProt Q86Y07); assay: Inhibition of wild-type human partial length VRK2 (M1 to T336 residues) expressed in mammalian expression system at 10 uM by Kinomescan method relative to control
Sequence of Serine/threonine-protein kinase VRK2 (Homo sapiens) (Q86Y07 whole entry, the tested form may be a part): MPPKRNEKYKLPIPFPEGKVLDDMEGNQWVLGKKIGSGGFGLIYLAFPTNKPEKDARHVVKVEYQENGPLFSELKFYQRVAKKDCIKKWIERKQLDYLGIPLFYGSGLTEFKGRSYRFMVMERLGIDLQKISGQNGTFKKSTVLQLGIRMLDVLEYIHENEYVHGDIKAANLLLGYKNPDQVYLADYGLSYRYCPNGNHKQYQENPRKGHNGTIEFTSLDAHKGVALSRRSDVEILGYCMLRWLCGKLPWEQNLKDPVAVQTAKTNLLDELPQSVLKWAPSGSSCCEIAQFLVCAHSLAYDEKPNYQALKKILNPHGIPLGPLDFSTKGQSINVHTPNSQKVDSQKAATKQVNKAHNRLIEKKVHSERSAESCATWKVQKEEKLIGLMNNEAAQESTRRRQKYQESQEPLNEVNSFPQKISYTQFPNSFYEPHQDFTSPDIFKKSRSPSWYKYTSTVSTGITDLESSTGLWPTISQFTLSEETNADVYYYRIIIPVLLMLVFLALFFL

Sequence of RAC-alpha serine/threonine-protein kinase (Homo sapiens) (P31749 whole entry, the tested form may be a part): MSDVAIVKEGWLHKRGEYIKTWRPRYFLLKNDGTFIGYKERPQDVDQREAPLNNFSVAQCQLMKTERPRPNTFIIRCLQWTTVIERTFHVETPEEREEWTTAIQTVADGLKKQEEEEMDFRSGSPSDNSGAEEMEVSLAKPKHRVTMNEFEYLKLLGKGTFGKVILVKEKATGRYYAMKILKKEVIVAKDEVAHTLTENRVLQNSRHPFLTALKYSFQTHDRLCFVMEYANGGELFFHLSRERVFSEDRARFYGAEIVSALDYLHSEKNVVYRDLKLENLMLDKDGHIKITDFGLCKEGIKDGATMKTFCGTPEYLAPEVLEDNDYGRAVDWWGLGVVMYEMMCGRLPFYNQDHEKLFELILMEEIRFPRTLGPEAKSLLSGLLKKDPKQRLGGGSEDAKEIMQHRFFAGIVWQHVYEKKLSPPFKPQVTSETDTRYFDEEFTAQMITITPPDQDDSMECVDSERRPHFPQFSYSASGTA

O=C(Nc1cccc([C@@H]2CN(c3ncnc4[nH]ccc34)CCN2CCO)c1)Nc1c(F)cccc1N1CCCC1
inhibition [1]: 100%
inhibition [2]: 87%
inhibition [3]: 100%
inhibition [4]: 95%
inhibition [5]: 80%
inhibition [6]: 100%
inhibition [7]: 97%

O=C(Nc1cccc([C@H]2CCCN(c3ncnc4[nH]ccc34)C2)c1)Nc1ccccc1N1CCCC1
inhibition [8]: 100%
inhibition [9]: 4%
inhibition [10]: 69%
inhibition [11]: 100%
inhibition [12]: 0.55%
inhibition [13]: 100%
inhibition [14]: 98%
inhibition [15]: 0.25%
inhibition [16]: 27%
inhibition [17]: 86%
inhibition [18]: 86%
inhibition [19]: 71%
inhibition [20]: 54%
inhibition [21]: 96%
inhibition [22]: 86%
inhibition [23]: 49%
inhibition [24]: 90%
inhibition [25]: 100%
inhibition [26]: 3.5%
inhibition [27]: 93%
